This assay concerns filaggrin. Kind of assay: Filaggrin protein expression in keratinocytes (PROTEINSIMPLE SIMON western blotting bioassay). The format is cell-based, human. The settings on record: 1% tested, 24 to 36 hours. Here is the method:
Changes in the production of filaggrin in keratinocytes due to each of the active ingredients, any one of the combination of ingredients, or compositions having said combinations disclosed in the specification can be measured. Filaggrin is the precursor to Natural Moisturizing Factor (NMF) in the skin. Increased NMF increases the moisture content of the skin.
Filaggrin production in treated and non-treated keratinocytes was determined using the PROTEINSIMPLE® SIMON™ western blotting bioassay that employs an antibody specific for filaggrin to quantitatively detect filaggrin concentration in keratinocyte cell lysates. The treated group of keratinocytes was treated with 1% of calcium or an extract of Laminaria saccharina, marine plankton, Opuntia ficus-indica, Imperata cylindrical, or Verbena officinalis (1%).
For each sample, normal human epidermal keratinocytes (NHEK) were grown in EPI-200—Mattek EPILIFE™ growth media with calcium from Life Technologies (M-EP-500-CA). […] The protein concentrations of the samples were determined and used to normalize the samples. The lysates were stored at −80° C. until used in the quantification assay. […] The chemiluminescent development was stopped at a specific time and the intensity of the chemiluminescent signal was measured (reported as Area Under Curve, AUC in Table 3 below) and compared to controls.

For `[Ca+2]` [Calcium], the “% Ctrl (increase in filaggrin protein expression)” value (NHEK, compared to controls) came to 15.60%. Moreover, the “AUC (intensity of the chemiluminescent signal, filaggrin)” value (normal human epidermal keratinocytes (NHEK), control AUC 70848) is 81899.

Source of the values: US20210330578A1, “TOPICAL COSMETIC COMPOSITIONS” (Mary Kay Inc., priority 2020, published 2021).
